Calls of active or inactive are those of the source. No cut-off for these calls is given here.
Experiments:
LNCaP [1] = assay: cells; conditions: Homo sapiens, 72 h
Description: Cytotoxicity against androgen-dependent human LNCAP cells assessed as growth inhibition after 72 hrs by MTS assay

[2] = molecular target: T1, Protein deacetylase HDAC6 (Homo sapiens) (UniProt Q9UBN7); assay: Inhibition of HDAC6 in human LNCAP cells assessed as increase in tubulin acetylation at 3.49 to 20 uM after 4 hrs by Western blotting analysis; format: cell-based
T1 sequence (whole entry): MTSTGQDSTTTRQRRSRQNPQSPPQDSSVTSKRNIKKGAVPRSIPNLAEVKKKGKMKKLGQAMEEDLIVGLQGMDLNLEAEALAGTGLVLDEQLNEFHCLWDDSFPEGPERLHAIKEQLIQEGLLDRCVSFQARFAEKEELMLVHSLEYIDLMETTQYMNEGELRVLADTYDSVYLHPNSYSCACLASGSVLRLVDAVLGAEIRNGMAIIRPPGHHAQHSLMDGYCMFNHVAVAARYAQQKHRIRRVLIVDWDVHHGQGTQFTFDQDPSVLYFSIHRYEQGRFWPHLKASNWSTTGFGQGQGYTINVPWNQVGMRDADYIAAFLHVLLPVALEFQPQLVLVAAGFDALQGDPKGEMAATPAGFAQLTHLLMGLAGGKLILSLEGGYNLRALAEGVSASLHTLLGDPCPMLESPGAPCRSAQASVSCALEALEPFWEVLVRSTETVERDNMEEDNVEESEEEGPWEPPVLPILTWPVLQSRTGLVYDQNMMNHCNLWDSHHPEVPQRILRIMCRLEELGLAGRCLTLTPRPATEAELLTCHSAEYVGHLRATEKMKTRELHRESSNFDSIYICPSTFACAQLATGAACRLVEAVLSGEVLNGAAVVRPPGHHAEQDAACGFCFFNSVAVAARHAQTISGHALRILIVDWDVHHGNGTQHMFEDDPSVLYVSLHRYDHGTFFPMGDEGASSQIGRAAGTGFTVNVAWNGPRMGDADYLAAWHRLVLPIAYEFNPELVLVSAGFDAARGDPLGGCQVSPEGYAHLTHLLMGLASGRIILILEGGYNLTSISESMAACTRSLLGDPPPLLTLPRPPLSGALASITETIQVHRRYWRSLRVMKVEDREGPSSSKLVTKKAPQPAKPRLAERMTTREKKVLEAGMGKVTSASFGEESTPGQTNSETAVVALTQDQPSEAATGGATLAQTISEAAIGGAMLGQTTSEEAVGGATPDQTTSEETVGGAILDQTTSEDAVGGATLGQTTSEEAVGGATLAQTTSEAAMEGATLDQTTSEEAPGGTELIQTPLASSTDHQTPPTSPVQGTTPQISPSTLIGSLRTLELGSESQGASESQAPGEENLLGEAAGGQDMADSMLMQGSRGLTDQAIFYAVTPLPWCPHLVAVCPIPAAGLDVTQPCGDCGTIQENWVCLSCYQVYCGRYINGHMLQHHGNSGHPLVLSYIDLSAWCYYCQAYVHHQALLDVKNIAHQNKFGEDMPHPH

DU-145 = assay: cells; format: functional, cell-based; conditions: Homo sapiens, DU-145, 72 h
Description: Cytotoxicity against androgen-independent human DU145 cells assessed as growth inhibition after 72 hrs by MTS assay

[3] = molecular target: T2, Interstitial collagenase (Homo sapiens) (UniProt P03956); assay: Inhibition of MMP-1 (unknown origin) using omniMMP as fluorogenic substrate at 10 uM preincubated for 30 mins followed by substrate addition measured after 30 mins by fluorescence assay
T2 sequence (whole entry): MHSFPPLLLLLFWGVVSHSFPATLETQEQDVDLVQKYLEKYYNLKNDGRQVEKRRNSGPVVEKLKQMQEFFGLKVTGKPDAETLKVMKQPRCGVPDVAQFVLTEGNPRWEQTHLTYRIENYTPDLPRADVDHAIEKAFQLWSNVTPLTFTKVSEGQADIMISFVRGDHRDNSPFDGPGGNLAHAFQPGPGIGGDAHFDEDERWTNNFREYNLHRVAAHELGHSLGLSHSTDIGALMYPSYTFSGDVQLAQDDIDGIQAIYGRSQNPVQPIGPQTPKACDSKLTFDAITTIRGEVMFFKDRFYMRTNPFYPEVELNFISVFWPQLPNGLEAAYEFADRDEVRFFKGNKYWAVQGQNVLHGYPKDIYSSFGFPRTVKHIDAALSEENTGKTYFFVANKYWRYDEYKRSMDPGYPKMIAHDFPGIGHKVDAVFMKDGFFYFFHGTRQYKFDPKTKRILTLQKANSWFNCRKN

[4] = molecular target: 72 kDa type IV collagenase (Homo sapiens) (UniProt P08253); assay: Inhibition of MMP-2 (unknown origin) using omniMMP as fluorogenic substrate at 10 uM preincubated for 30 mins followed by substrate addition measured after 30 mins by fluorescence assay
[5] = molecular target: Matrix metalloproteinase-9 (Homo sapiens) (UniProt P14780); assay: Inhibition of MMP-9 (unknown origin) using omniMMP as fluorogenic substrate at 10 uM preincubated for 30 mins followed by substrate addition measured after 30 mins by fluorescence assay
LNCaP [6] = assay: Potency index, ratio of tubastatin A IC50 to compound IC50 for human LNCAP cells; format: functional
[7] = molecular target: Collagenase 3 (Homo sapiens) (UniProt P45452); assay: Inhibition of MMP-13 (unknown origin) using omniMMP as fluorogenic substrate at 10 uM preincubated for 30 mins followed by substrate addition measured after 30 mins by fluorescence assay
[8] = Aqueous solubility of the compound […] at room temperature by UV-vis spectrophotometric analysis; format: physicochemical
[9] = molecular target: T3, Matrilysin (Homo sapiens) (UniProt P09237); assay: Inhibition of MMP-7 (unknown origin) using omniMMP as fluorogenic substrate at 10 uM preincubated for 30 mins followed by substrate addition measured after 30 mins by fluorescence assay
T3 sequence (whole entry): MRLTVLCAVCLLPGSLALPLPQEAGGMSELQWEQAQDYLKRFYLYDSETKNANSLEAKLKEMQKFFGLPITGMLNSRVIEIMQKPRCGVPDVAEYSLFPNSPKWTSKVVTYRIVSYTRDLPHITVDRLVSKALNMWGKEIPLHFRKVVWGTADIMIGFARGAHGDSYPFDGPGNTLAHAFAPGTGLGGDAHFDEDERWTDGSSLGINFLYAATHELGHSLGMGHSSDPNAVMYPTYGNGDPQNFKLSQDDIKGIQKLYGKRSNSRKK

Histone deacetylase 2 = Histone deacetylase 2 (Homo sapiens, UniProt Q92769); assay: Inhibition of HDAC2 (unknown origin) expressed in Escherichia coli BL21 (DE3) using GRKacYGC as substrate after 60 mins by SAMDI mass spectrometric analysis
Vero = assay: Cytotoxicity against African green monkey Vero cells assessed as growth inhibition after 72 hrs by MTS assay; format: cell-based; conditions: Chlorocebus sabaeus
[10] = molecular target: Matrix metalloproteinase-14 (Homo sapiens) (UniProt P50281); assay: Inhibition of MMP-14 (unknown origin) using omniMMP as fluorogenic substrate at 10 uM preincubated for 30 mins followed by substrate addition measured after 30 mins by fluorescence assay
[11] = molecular target: Stromelysin-1 (Homo sapiens) (UniProt P08254); assay: Inhibition of MMP-3 (unknown origin) using omniMMP as fluorogenic substrate at 10 uM preincubated for 30 mins followed by substrate addition measured after 30 mins by fluorescence assay
[12] = molecular target: Histone deacetylase 1 (Homo sapiens) (UniProt Q13547); assay: Inhibition of HDAC1 (unknown origin) expressed in Escherichia coli BL21 (DE3) using GRKacFGC as substrate at 10 uM after 60 mins by SAMDI mass spectrometric analysis relative to control
Jurkat = assay: cells; format: functional, cell-based; conditions: Homo sapiens, 72 h
Description: Cytotoxicity against human Jurkat cells assessed as growth inhibition after 72 hrs by MTS assay

[13] = Cytotoxicity against human Jurkat gamma1 cells assessed as growth inhibition after 72 hrs by MTS assay; format: functional, cell-based
[14] = molecular target: T4, Protein deacetylase HDAC6 (Homo sapiens, UniProt Q9UBN7); assay: Inhibition of HDAC6 (unknown origin) expressed in Escherichia coli BL21 (DE3) using GRKacYGC as substrate after 60 mins by SAMDI mass spectrometric analysis
T4 sequence (Q9UBN7 whole entry): T1 sequence (whole entry)

Histone deacetylase 8 = molecular target: T5, Histone deacetylase 8 (Homo sapiens, UniProt Q9BY41); assay: Inhibition of HDAC8 catalytic domain (unknown origin) expressed in Escherichia coli BL21 (DE3) using GRKacFGC as substrate after 60 mins by SAMDI mass spectrometric analysis
T5 sequence (Q9BY41 whole entry): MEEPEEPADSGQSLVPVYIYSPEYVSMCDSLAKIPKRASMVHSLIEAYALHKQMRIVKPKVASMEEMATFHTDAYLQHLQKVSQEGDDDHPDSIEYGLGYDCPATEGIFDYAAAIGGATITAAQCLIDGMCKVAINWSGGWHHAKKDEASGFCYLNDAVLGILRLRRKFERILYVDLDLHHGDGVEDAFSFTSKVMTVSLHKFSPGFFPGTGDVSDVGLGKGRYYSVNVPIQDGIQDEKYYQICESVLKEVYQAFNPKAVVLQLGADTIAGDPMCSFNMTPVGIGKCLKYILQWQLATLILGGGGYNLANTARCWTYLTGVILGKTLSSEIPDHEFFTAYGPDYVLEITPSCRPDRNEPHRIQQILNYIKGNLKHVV

[15] = molecular target: T1, Protein deacetylase HDAC6 (Homo sapiens); assay: Inhibition of HDAC6 in human LNCAP cells assessed as increase in tubulin acetylation at 5.43 to 20 uM after 4 hrs by Western blotting analysis; format: cell-based

Sequence of Histone deacetylase 1 (Homo sapiens) (Q13547 whole entry): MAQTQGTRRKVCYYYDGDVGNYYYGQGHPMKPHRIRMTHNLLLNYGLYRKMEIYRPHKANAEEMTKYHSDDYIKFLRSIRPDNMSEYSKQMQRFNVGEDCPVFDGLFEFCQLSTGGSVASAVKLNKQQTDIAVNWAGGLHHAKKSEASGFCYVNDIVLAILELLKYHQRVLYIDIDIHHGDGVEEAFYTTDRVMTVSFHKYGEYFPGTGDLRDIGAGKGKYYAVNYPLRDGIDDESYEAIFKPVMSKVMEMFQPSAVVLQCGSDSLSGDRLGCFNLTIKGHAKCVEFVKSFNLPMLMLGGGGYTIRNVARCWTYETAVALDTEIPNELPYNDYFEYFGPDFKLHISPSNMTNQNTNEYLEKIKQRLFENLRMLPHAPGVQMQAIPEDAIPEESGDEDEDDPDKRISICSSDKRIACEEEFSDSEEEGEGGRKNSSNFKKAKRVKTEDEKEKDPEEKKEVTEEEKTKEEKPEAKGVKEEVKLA
Sequence of 72 kDa type IV collagenase (Homo sapiens) (P08253 110-660 limits assumed): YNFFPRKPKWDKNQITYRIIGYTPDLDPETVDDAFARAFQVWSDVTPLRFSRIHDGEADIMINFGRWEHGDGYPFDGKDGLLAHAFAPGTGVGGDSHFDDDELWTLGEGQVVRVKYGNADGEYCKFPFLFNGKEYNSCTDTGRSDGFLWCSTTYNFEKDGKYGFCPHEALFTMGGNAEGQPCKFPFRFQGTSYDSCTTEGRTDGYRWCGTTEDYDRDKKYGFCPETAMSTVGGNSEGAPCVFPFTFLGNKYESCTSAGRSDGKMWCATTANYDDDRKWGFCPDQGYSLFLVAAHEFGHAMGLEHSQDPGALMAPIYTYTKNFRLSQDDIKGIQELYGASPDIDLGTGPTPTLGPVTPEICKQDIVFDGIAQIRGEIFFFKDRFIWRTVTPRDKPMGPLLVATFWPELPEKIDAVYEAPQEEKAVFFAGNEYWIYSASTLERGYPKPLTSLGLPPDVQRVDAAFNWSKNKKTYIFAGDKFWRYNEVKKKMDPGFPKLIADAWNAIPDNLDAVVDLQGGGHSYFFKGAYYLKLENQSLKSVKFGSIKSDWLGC
Sequence of Stromelysin-1 (Homo sapiens) (P08254 100-477 limits assumed): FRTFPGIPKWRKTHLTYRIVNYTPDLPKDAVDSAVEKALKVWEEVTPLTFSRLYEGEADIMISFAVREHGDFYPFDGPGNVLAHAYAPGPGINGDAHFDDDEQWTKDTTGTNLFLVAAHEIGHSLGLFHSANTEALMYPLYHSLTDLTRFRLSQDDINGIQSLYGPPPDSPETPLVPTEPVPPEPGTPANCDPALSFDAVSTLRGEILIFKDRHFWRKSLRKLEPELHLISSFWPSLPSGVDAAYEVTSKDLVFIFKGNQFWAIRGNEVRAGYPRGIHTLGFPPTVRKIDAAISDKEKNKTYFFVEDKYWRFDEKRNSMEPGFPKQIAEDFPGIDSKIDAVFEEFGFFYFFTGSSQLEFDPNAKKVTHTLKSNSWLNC
Sequence of Histone deacetylase 2 (Q92769 whole entry): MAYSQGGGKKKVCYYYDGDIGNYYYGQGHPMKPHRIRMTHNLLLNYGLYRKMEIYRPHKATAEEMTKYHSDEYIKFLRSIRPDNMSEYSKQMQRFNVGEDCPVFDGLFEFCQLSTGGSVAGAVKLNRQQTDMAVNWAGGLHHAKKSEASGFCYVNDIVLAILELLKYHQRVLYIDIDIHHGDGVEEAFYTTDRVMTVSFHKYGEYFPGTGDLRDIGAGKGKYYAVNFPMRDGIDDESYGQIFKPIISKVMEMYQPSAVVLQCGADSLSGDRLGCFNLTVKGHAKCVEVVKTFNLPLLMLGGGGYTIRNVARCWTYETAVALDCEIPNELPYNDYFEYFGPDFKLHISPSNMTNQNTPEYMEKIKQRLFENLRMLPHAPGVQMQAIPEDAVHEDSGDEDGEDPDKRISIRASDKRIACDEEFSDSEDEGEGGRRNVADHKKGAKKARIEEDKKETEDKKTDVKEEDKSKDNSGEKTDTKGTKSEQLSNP
Sequence of Matrix metalloproteinase-9 (Homo sapiens) (P14780 whole entry): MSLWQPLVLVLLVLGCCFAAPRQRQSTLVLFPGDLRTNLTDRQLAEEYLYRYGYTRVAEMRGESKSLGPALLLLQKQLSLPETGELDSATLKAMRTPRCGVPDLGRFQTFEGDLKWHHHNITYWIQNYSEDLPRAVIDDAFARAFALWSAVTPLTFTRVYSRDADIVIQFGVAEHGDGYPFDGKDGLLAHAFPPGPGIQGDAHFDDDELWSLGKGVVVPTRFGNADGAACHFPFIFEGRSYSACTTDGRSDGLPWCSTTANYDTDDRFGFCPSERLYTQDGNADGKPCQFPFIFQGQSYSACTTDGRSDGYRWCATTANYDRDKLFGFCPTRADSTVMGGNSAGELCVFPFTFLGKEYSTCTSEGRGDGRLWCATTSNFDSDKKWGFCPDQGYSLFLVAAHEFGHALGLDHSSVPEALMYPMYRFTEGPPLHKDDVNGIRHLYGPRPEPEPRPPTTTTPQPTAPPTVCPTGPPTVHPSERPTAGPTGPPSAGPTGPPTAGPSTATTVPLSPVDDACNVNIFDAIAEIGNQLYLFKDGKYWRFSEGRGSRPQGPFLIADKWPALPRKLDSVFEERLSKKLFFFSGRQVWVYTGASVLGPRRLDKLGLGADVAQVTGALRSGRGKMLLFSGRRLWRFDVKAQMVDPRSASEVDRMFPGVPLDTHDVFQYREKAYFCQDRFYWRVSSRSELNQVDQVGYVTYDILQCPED

SMILES | IC50 (LNCaP [1]) | inhibition [2] | IC50 (DU-145) | inhibition [3] | inhibition [4] | inhibition [5] | Ratio IC50 (LNCaP [6]) | inhibition [7] | solubility [8] | inhibition [9] | IC50 (Histone deacetylase 2) | IC50 (Vero) | inhibition [10] | inhibition [11] | inhibition [12] | IC50 (Jurkat) | IC50 [13] | IC50 [14] | IC50 (Histone deacetylase 8) | inhibition [15]
N#Cc1cccc(-c2cn(CCCCCn3cccc(O)c3=S)nn2)c1 | 3.49 µM | Active | 5.03 µM | inactive | inactive | inactive | 3.1 | Active | soluble | inactive | 3.68 µM | > 20 µM | inactive | inactive | < 20% | 3.44 µM | 0.9 µM | – | – | –
Oc1cccn(CCCCCn2cc(-c3ccccc3)nn2)c1=S | 5.43 µM | – | 9.33 µM | inactive | inactive | inactive | 2 | Active | soluble | inactive | 5.84 µM | > 20 µM | inactive | inactive | < 20% | 3.27 µM | 1.86 µM | 0.911 µM | 0.917 µM | Active

— ChEMBL document CHEMBL3108745, “Synthesis and structure-activity relationship of 3-hydroxypyridine-2-thione-based histone deacetylase inhibitors” (J Med Chem, 2013)
